From patent US12275745B2, “Therapeutic compounds and methods of use” (Genentech, Inc., priority 2021, dated 2025)
Read-outs that look alike come from different tables or passages of the source.

What was measured:
TEAD3 = TEAD3 (Homo sapiens, UniProt Q99594); assay: TR-FRET (Lipid HTRF) TEAD lipid pocket probe displacement assay, TEAD3; assay type: binding; conditions: His-tagged TEAD3, biotinylated lipid pocket probe, 4 hours
TEAD4 = TEAD4 (Homo sapiens, UniProt Q15561); assay: TR-FRET (Lipid HTRF) TEAD lipid pocket probe displacement assay, TEAD4; assay type: binding; conditions: His-tagged TEAD4, biotinylated lipid pocket probe, 4 hours
Method: (§1) His-tagged TEAD proteins are pre-incubated with TEAD project compounds for 30 minutes or 4 hours at room temperature. Biotinylated lipid pocket probes are then added to the TEAD/Compound mixture and incubated for 60 minutes at room temperature. The lipid pocket probe competes with the test compound for the TEAD lipid pocket until equilibrium is reached. After 60 minutes, Europium labelled anti-His (Perkin Elmer #AD0110) and XL665 labelled streptavidin (CIS Bio 610SAXAC) are added to the TEAD/test compound/lipid pocket mixture and incubated for 30 minutes or 4 hours. TR-FRET values are then measured using an EnVision multi-label plate reader (Perkin Elmer Cat #2104-001 0A.) If the lipid pocket probe binds to TEAD as expected, a TR-FRET signal results from the proximity of anti-His Eu and XL665. If a TEAD lipid pocket binder such as binds and displaces the lipid pocket probe, the disruption of the TEAD:probe interaction results in a decrease in TR-FRET signal. The potency of compounds as TEAD lipid pocket binders is determined by IC50 value generated using a non-linear 4 parameter curve fit.

TEAD2 [1] = molecular target: T1, TEAD2 (Homo sapiens, UniProt Q15562);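 further: TR-FRET competition assay with His-tagged TEAD protein and a biotinylated lipid pocket probe, where probe displacement by compound lowers the signal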
TEAD1 = TEAD1 (Homo sapiens, UniProt P28347); assay: TR-FRET (Lipid HTRF) TEAD lipid pocket probe displacement assay, TEAD1; assay type: binding; conditions: His-tagged TEAD1, biotinylated lipid pocket probe, 4 hours
Method: as §1

TEAD2 [2] = molecular target: T1, TEAD2; assay: biochemical

TEAD3, sequence (Q99594 whole entry, species assumed): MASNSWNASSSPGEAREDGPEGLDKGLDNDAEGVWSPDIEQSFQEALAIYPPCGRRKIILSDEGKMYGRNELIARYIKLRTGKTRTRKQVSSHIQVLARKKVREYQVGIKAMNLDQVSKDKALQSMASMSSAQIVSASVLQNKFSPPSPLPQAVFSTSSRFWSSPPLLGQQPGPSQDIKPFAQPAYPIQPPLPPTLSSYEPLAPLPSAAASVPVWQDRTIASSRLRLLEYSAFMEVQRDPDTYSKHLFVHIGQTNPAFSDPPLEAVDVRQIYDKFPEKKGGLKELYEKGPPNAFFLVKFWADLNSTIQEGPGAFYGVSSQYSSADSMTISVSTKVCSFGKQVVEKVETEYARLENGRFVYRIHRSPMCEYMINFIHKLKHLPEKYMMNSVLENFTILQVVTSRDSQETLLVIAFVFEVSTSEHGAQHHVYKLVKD
TEAD4, sequence (Q15561 whole entry, species assumed): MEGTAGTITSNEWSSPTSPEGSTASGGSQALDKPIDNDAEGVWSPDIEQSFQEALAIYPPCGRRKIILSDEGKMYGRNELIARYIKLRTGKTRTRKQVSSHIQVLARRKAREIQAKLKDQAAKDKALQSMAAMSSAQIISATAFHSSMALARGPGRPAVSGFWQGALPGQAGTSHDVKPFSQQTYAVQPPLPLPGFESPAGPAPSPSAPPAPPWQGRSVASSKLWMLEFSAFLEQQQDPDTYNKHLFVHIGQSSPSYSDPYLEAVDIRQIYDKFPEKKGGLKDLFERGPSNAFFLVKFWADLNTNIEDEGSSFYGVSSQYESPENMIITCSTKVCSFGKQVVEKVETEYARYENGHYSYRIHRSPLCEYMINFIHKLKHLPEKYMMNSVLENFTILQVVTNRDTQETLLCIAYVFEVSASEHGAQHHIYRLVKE
T1 sequence (Q15562 whole entry, species assumed): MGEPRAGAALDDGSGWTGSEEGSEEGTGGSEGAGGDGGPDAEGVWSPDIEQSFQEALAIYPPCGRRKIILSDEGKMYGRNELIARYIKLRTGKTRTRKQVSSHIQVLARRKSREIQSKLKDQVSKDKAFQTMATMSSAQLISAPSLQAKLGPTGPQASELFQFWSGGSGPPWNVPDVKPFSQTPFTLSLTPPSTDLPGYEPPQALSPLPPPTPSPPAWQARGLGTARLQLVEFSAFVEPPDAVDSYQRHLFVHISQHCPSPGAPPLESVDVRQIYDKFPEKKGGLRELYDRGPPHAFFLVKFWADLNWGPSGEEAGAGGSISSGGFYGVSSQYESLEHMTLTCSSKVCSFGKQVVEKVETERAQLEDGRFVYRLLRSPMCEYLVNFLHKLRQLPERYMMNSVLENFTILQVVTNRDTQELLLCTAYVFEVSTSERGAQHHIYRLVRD
TEAD1, sequence (P28347 whole entry, species assumed): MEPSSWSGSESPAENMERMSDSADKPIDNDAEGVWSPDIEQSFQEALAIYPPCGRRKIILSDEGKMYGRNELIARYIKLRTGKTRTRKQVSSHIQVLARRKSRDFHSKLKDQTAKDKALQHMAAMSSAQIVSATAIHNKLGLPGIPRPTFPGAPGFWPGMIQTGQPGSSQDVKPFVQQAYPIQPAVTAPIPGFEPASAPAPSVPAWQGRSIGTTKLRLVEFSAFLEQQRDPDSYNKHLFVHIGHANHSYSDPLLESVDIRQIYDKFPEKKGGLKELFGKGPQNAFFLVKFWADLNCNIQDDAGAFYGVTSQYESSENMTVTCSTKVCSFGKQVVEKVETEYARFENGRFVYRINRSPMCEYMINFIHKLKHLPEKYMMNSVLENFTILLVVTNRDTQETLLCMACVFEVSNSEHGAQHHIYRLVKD

Row | IC50 (TEAD3) | IC50 (TEAD4) | IC50 (TEAD2 [1]) | IC50 (TEAD1) | IC50 (TEAD2 [2]) | Compound
1 | 2500 nM | 54 nM | 10 nM | 32 nM | – | C=CC(=O)NCc1cc(-c2ccc(OC(F)(F)F)cc2)c2ncn(C)c2c1[C@@H](C)O (single isomer, unassigned) [Compound 32]
2 | 93 nM | 3.5 nM | 6 nM | 6.9 nM | – | C=CC(=O)NCc1cc(-c2ccc(OC(F)(F)F)cc2)c2ncn(C)c2c1C#CCO [Compound 58, N-[[4-(3-hydroxyprop-1-ynyl)-3-methyl-7-[4-(trifluoromethoxy)phenyl]benzimidazol-5-yl]methyl]prop-2-enamide]
3 | 1600 nM | 15 nM | – | 58 nM | 98 nM | C=C(NC(=O)c1cc(-c2ccc(OC(F)(F)F)cc2)c2ncn(C)c2c1)C(=O)OC [Compound 141, Methyl 2-(1-methyl-4-(4-(trifluoromethoxy)phenyl)-1H-benzo[d]imidazole-6-carboxamido)acrylate]
4 | 69 nM | 9.5 nM | – | 26 nM | 22 nM | C=CC(=O)NCc1cc(-c2ccc(OC(F)(F)F)cc2F)c2ncn(C)c2c1C#N [Compound 143, N-((7-Cyano-4-(2-fluoro-4-(trifluoromethoxy)phenyl)-1-methyl-1H-benzo[d]imidazol-6-yl)methyl)acrylamide]
5 | 1300 nM | 23 nM | – | 94 nM | 39 nM | C=CC(=O)N(C)CCc1cc(-c2ccc(OC(F)(F)F)cc2)c2ncn(C)c2c1C#N [Compound 144, N-(2-(7-Cyano-1-methyl-4-(4-(trifluoromethoxy)phenyl)-1H-benzo[d]imidazol-6-yl)ethyl)-N-methylacrylamide]
6 | 240 nM | 12 nM | – | 6.9 nM | 19 nM | C=C(F)C(=O)N1CC(c2cc(-c3ccc(OC(F)(F)F)cc3)c3ncn(C)c3c2)C1 [Compound 145, 2-Fluoro-1-(3-(1-methyl-4-(4-(trifluoromethoxy)phenyl)-1H-benzo[d]imidazol-6-yl)azetidin-1-yl)prop-2-en-1-one]
